Measurements reported in patent publication US8124657B2, “Metallofullerols and their applications for preparation of medicine for inhibition of tumor growth” (Institute of High Energy Physics Chinese Academy of Sciences, priority 2005, dated 2012).
Marks after values point to notes of the source that are not given here.

What was measured:
H22 hepatoma = experiment: Antitumor activity on murine H22 hepatoma implanted subcutaneously in Kunming mice; type: in vivo; conditions: for Tumor Weight: mean±SEM
Protocol: Antitumor studies of hydroxylated metallofullerene nanoparticles were performed on Kunming mice (female, adult, 4 weeks at the start of the experiment, body weight ranging from 20 to 22 g). The mice were subcutaneously implanted with 1×10^6 cells of H22 hepatoma (in 100 μl of saline) in each mouse at the right hind leg. Primary tumors (before administration of antitumor agents) were measured with calipers. The end point of the experiment was determined by the diameter of their leg loaded with tumor up to 2 or 2.2 centimeters. The size of tumor was monitored by daily measurement. Tumor growth curve was obtained by the diameter of the tumor as a function of the time.
The 40 mice of weight ranging from 20 to 22 g were randomly divided into 6 groups. The tumor-bearing mice were then systemically treated with hydroxylated metallofullerene nanoparticles saline solution by intraperitoneal injections once a day. Two doses of hydroxylated metallofullerene nanoparticles, 114 and 228 μg/kg corresponding to 1×10^−7 and 2×10^−7 mol/kg, respectively, were used in the experiment. The currently clinic antineoplastic agent CTX was used for the positive control, with a dose 30 mg/kg (1×10^−4 mol/kg, MW 279.1) of the currently clinic use for cancer therapy. Because of its side effects, treatments by 1×10^−4 and 5×10^−[…] of CTX continued for the first 7 days. Each mouse was administrated intraperitoneally (i.p.) a single dose of 0.2 ml per day from the second day of inoculation and continued to the day before sacrifice. The change of the tumor size was precisely measured every 24 hours.
Table 1 is the tumor weights (mean±SEM, Table 1) from 5-7 mice in each group. FIG. 1 is the Inhibition curve of hepatoma growth in mice by treatment with metallofullerol nanoparticles in two independent experiments. The growth of tumor size was monitored through measuring the diameter of the tumor every 24 hours. Tumor volumes were then calculated according to the formula: V=4πr^3/3. Tumor growth curve was obtained by the diameter of the tumor.

[1] = Serum liver and kidney function markers in H22 tumor-bearing mice; type: in vivo
Protocol: In another aspect, the invention of hydrolated metallofullerene nanoparticles low toxicity in vivo. Liver function was evaluated with serum levels of total bilirubin levels (TBIL), alanine aminotransferase (ALT) and aspartate aminotransferase (AST). Nephrotoxicity was determined by blood urea nitrogen (BUN) and creatinine (Cr). For instance, the ALT levels of saline-treated groups are almost 4 times of the normal mean value. These indicate that implantation of H22 hepatoma itself in mice has harmed the functions of liver and kidney before treatments. […] After nanoparticle-treatment, the activities of ALT and AST (P<0.01) are reduced by 40% compared with saline control.
Table 2 is the serum TBIL, ALT, AST, and creatinine levels in tumor-bearing mice associated with metallofullerol treatment.

[2] = system: H22 hepatoma tumor tissues; experiment: HE staining of tumor tissues of H22 tumor-bearing mice; type: in vivo
From the text: The tumor morphology of HE staining of paraffin-embedded sections of tumor tissues in nanoparticle-treated, CTX-treated and the control groups, are shown in FIG. 9. In the saline control group, tumor cells heavily proliferated, arrayed regularly, and grievously invaded surrounding musculature (FIGS. 9A and B). […] When […] H22 liver tumors developed subcutaneously in mice, the envelope surrounding the neoplastic tissues, mainly composed of capillary vessels, fibrosis and lymphadenoid tissues were formed (FIG. 9C). […] In the [Gd@C82(OH)22]n-treated groups, lymphocyte hyperplasia (lymphopoiesis) and aggregated follicles around the transplanted tumor tissues were clearly seen (FIG. 9C). But in the CTX-treated mice, this envelope of fibroblasts associated with sporadic neutrophil cells was small so that it could not completely enclose the entire tumor tissues. Unlike in groups of the nanoparticle-treatment, the tumor invasion into surrounding normal muscle cells still existed in the CTX-treatment groups; although necrosis of tumor tissue was observed (FIGS. 9E and F).

[3] = system: MCF-7 human breast carcinoma
Protocol: Athymic BALB/c nu/nu female mice (weighing 16.0±1.0 g) were acclimated in the controlled environment (22±1° C. in temperature, 60±10% in humidity and a 12 h light/dark cycle) with free access to sterile distilled water and commercial laboratory complete food containing no pathogens. All animal experiments were performed in compliance with local ethics committee. The human beast cancer MCF-7 cell line was provided by the Cancer Institute and Cancer Hospital, Chinese Academy of Medical Sciences. The tumor bearing nude mice (female) were randomly divided into three groups, twelve in each group. […] A currently used clinical antitumor agent, Paclitaxel, was used as the positive control. Paclitaxel was given 4 times at intervals of 3 days at the dose of 10 mg/kg; when it was not injected, saline solution was injected instead of it. 0.9% saline solution was used as a negative control in the antitumor experiment. The whole administration process lasted 14 days after the starting point. The body weight and tumor size were used as two basic parameters in the experiments, and tumor growth and body weight curve were prepared as a function of time. Tumor weight was calculated according to the formula: Tumor weight (mg)=length (mm)×(width (mm))^2/2.

[4] = Dosage I (Low): CTX 5 × 10^−5 mol/kg/day i.p., n = 6
[5] = Dosage II (High): CTX 1 × 10^−4 mol/kg/day i.p., n = 11

Compound | Inhibition Efficiency (H22 hepatoma; [4]) [%] | Tumor Weight (H22 hepatoma; [4]) [g] | Inhibition Efficiency (H22 hepatoma; [5]) [%] | Tumor Weight (H22 hepatoma; [5]) [g] | Change of serum ALT versus saline ([1]; CTX-treated) | Serum ALT ([1]; high dose group) [IU/L] | Serum AST ([1]; high dose group) | Serum Creatinine ([1]; high dose group) [µmol/L] | Serum TBIL ([1]; high dose group) [µmol/L] | Change of serum concentrations of TBIL, BUN and Cr ([1]; i.p. injections) | Immune responses in tumor tissues (HE staining) [2] | Tumor necrosis in HE-stained tumor sections [2] | Inhibition Efficiency ([3]; CTX 71.6 μmol/kg/day, N = 10, nude mice) [%] | Mortality of mice ([3]; MCF-7 tumor-bearing nude mice under treatment) [%]
O=P1(N(CCCl)CCCl)NCCCO1 (centres unmarked) [CTX] | 52.0 | 1.80 ± 0.41 | 67.5 | 1.22 ± 0.86 | not reduced, but even slightly increased | 152.2 ± 71.5 | 337 ± 53.7 ^a IU/L | 51.0 ± 3.3 | 1.66 ± 0.59 | do not significantly changed | not observed | evidently induced tumor necrosis | 47.0 | –
CC(=O)O[C@H]1C(=O)[C@@]2(C)[C@H]([C@H](OC(=O)c3ccccc3)[C@]3(O)C[C@H](OC(=O)[C@H](O)[C@@H](NC(=O)c4ccccc4)c4ccccc4)C(C)=C1C3(C)C)[C@]1(OC(C)=O)CO[C@@H]1C[C@@H]2O [Paclitaxel] | – | – | – | – | – | – | – | – | – | – | – | – | – | 16.7
